Assay results published in patent US9738634B2, “Heterocyclic amide compound and herbicide” (SYNGENTA PARTICIPATIONS AG, priority 2013, dated 2017).

Legend:
Assay type in all cases: in vivo
barnyard grass [1] = test: Test Example 1: weedkilling efficacy, preemergent weed treatment in the submerged state; A: barnyard grass; conditions: treatment dosage 252 g/ha
In short: (§1)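 Visual scores against set criteria were taken 3 weeks after treatment. Compounds, as diluted emulsions at specified g/ha, went onto the water surface of 4 cm-flooded alluvial soil pots on the day weeds were sown and 2.5-leaf rice was transplanted; greenhouse held 25–30 °C.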

bulrush [2] = test: Test Example 1: weedkilling efficacy, preemergent weed treatment in the submerged state; B: bulrush; conditions: treatment dosage 252 g/ha
In short: as §1

oval-leafed pondweed [3] = test: Test Example 1: weedkilling efficacy, preemergent weed treatment in the submerged state; C: oval-leafed pondweed; conditions: treatment dosage 252 g/ha
In short: as §1

transplanted rice = test: Test Example 1: preemergent weed treatment in the submerged state, effect on crop; a: transplanted rice; conditions: treatment dosage 252 g/ha
In short: as §1

barnyard grass [4] = test: Test Example 2: weedkilling efficacy, growth period weed treatment in the submerged state; A: barnyard grass; conditions: treatment dosage 252 g/ha
In short: (§2)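 Barnyard grass, bulrush and oval-leafed pondweed sown in alluvial soil under 4 cm flooding, greenhouse 25 to 30° C. At 1-2 leaf stage, water-diluted emulsion applied to the water surface at stated g/ha dosages; effects scored 3 weeks later.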

bulrush [5] = test: Test Example 2: weedkilling efficacy, growth period weed treatment in the submerged state; B: bulrush; conditions: treatment dosage 252 g/ha
In short: as §2

oval-leafed pondweed [6] = test: Test Example 2: weedkilling efficacy, growth period weed treatment in the submerged state; C: oval-leafed pondweed; conditions: treatment dosage 252 g/ha
In short: as §2

crabgrass [7] = test: Test Example 3: weedkilling efficacy through soil treatment; D: crabgrass; conditions: treatment dosage 315 g/ha
In short: (§3)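 Crop and weed responses were judged three weeks after a uniform surface spray of the water-diluted emulsion at the given g/ha rate. Seeds sat beneath about 1.5 cm of sterilized diluvial soil, and boxes stood in a greenhouse at 25 to 30° C.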

green foxtail [8] = test: Test Example 3: weedkilling efficacy through soil treatment; E: green foxtail; conditions: treatment dosage 315 g/ha
In short: as §3

wild oat [9] = test: Test Example 3: weedkilling efficacy through soil treatment; G: wild oat; conditions: treatment dosage 315 g/ha
In short: as §3

black-grass [10] = test: Test Example 3: weedkilling efficacy through soil treatment; H: black-grass; conditions: treatment dosage 315 g/ha
In short: as §3

Italian ryegrass [11] = test: Test Example 3: weedkilling efficacy through soil treatment; I: Italian ryegrass; conditions: treatment dosage 315 g/ha
In short: as §3

Indian mallow [12] = test: Test Example 3: weedkilling efficacy through soil treatment; K: Indian mallow; conditions: treatment dosage 315 g/ha
In short: as §3

redroot pigweed [13] = test: Test Example 3: weedkilling efficacy through soil treatment; L: redroot pigweed; conditions: treatment dosage 315 g/ha
In short: as §3

fig-leafed goosefoot [14] = test: Test Example 3: weedkilling efficacy through soil treatment; M: fig-leafed goosefoot; conditions: treatment dosage 315 g/ha
In short: as §3

chickweed [15] = test: Test Example 3: weedkilling efficacy through soil treatment; N: chickweed; conditions: treatment dosage 315 g/ha
In short: as §3

catchweed [16] = test: Test Example 3: weedkilling efficacy through soil treatment; O: catchweed; conditions: treatment dosage 315 g/ha
In short: as §3

birds-eye speedwell [17] = test: Test Example 3: weedkilling efficacy through soil treatment; p: birds-eye speedwell; conditions: treatment dosage 315 g/ha
In short: as §3

directly sown rice [18] = test: Test Example 3: soil treatment, effect on crop; b: directly sown rice; conditions: treatment dosage 315 g/ha
In short: as §3

corn [19] = test: Test Example 3: soil treatment, effect on crop; c: corn; conditions: treatment dosage 315 g/ha
In short: as §3

soybean [20] = test: Test Example 3: soil treatment, effect on crop; d: soybean; conditions: treatment dosage 315 g/ha
In short: as §3

wheat [21] = test: Test Example 3: soil treatment, effect on crop; e: wheat; conditions: treatment dosage 315 g/ha
In short: as §3

beet [22] = test: Test Example 3: soil treatment, effect on crop; f: beet; conditions: treatment dosage 315 g/ha
In short: as §3

crabgrass [23] = test: Test Example 4: weedkilling efficacy by foliar treatment; D: crabgrass; conditions: treatment dosage 315 g/ha
In short: (§4)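 Seeds are spot-sown into sterilized diluvial soil and covered with about 1.5 cm of soil. After 14 days' greenhouse growth at 25 to 30° C, plants are sprayed on stems and leaves with diluted emulsion at the stated g/ha rate, then scored at 3 weeks.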

green foxtail [24] = test: Test Example 4: weedkilling efficacy by foliar treatment; E: green foxtail; conditions: treatment dosage 315 g/ha
In short: as §4

wild oat [25] = test: Test Example 4: weedkilling efficacy by foliar treatment; G: wild oat; conditions: treatment dosage 315 g/ha
In short: as §4

black-grass [26] = test: Test Example 4: weedkilling efficacy by foliar treatment; H: black-grass; conditions: treatment dosage 315 g/ha
In short: as §4

Italian ryegrass [27] = test: Test Example 4: weedkilling efficacy by foliar treatment; I: Italian ryegrass; conditions: treatment dosage 315 g/ha
In short: as §4

Indian mallow [28] = test: Test Example 4: weedkilling efficacy by foliar treatment; K: Indian mallow; conditions: treatment dosage 315 g/ha
In short: as §4

redroot pigweed [29] = test: Test Example 4: weedkilling efficacy by foliar treatment; L: redroot pigweed; conditions: treatment dosage 315 g/ha
In short: as §4

fig-leafed goosefoot [30] = test: Test Example 4: weedkilling efficacy by foliar treatment; M: fig-leafed goosefoot; conditions: treatment dosage 315 g/ha
In short: as §4

chickweed [31] = test: Test Example 4: weedkilling efficacy by foliar treatment; N: chickweed; conditions: treatment dosage 315 g/ha
In short: as §4

catchweed [32] = test: Test Example 4: weedkilling efficacy by foliar treatment; O: catchweed; conditions: treatment dosage 315 g/ha
In short: as §4

birds-eye speedwell [33] = test: Test Example 4: weedkilling efficacy by foliar treatment; p: birds-eye speedwell; conditions: treatment dosage 315 g/ha
In short: as §4

directly sown rice [34] = test: Test Example 4: foliar treatment, effect on crop; b: directly sown rice; conditions: treatment dosage 315 g/ha
In short: as §4

corn [35] = test: Test Example 4: foliar treatment, effect on crop; c: corn; conditions: treatment dosage 315 g/ha
In short: as §4

soybean [36] = test: Test Example 4: foliar treatment, effect on crop; d: soybean; conditions: treatment dosage 315 g/ha
In short: as §4

wheat [37] = test: Test Example 4: foliar treatment, effect on crop; e: wheat; conditions: treatment dosage 315 g/ha
In short: as §4

beet [38] = test: Test Example 4: foliar treatment, effect on crop; f: beet; conditions: treatment dosage 315 g/ha
In short: as §4

CC1=C(c2cccnc2F)C(=O)N(C(C)(C)C(=O)Nc2cc(Cl)ccn2)CO1 [B-2-07]
A (barnyard grass) weedkilling efficacy grade (barnyard grass [1]): 5 (weed kill ratio 90% or more, (practically complete withering))
B (bulrush) weedkilling efficacy grade (bulrush [2]): 5 (weed kill ratio 90% or more, (practically complete withering))
C (oval-leafed pondweed) weedkilling efficacy grade (oval-leafed pondweed [3]): 5 (weed kill ratio 90% or more, (practically complete withering))
a (transplanted rice) effect on crop grade (transplanted rice): 0 (weed kill ratio 5% or less (practically no effect))
A (barnyard grass) weedkilling efficacy grade (barnyard grass [4]): 3 (weed kill ratio 40% or more, less than 70%)
B (bulrush) weedkilling efficacy grade (bulrush [5]): 5 (weed kill ratio 90% or more, (practically complete withering))
C (oval-leafed pondweed) weedkilling efficacy grade (oval-leafed pondweed [6]): 2 (weed kill ratio 20% or more, less than 40%)
D (crabgrass) weedkilling efficacy grade (crabgrass [7]): 5 (weed kill ratio 90% or more, (practically complete withering))
E (green foxtail) weedkilling efficacy grade (green foxtail [8]): 5 (weed kill ratio 90% or more, (practically complete withering))
G (wild oat) weedkilling efficacy grade (wild oat [9]): 3 (weed kill ratio 40% or more, less than 70%)
H (black-grass) weedkilling efficacy grade (black-grass [10]): 5 (weed kill ratio 90% or more, (practically complete withering))
I (Italian ryegrass) weedkilling efficacy grade (Italian ryegrass [11]): 5 (weed kill ratio 90% or more, (practically complete withering))
K (Indian mallow) weedkilling efficacy grade (Indian mallow [12]): 2 (weed kill ratio 20% or more, less than 40%)
L (redroot pigweed) weedkilling efficacy grade (redroot pigweed [13]): 3 (weed kill ratio 40% or more, less than 70%)
M (fig-leafed goosefoot) weedkilling efficacy grade (fig-leafed goosefoot [14]): 3 (weed kill ratio 40% or more, less than 70%)
N (chickweed) weedkilling efficacy grade (chickweed [15]): 3 (weed kill ratio 40% or more, less than 70%)
O (catchweed) weedkilling efficacy grade (catchweed [16]): 3 (weed kill ratio 40% or more, less than 70%)
P (birds-eye speedwell) weedkilling efficacy grade (birds-eye speedwell [17]): 5 (weed kill ratio 90% or more, (practically complete withering))
b (directly sown rice) effect on crop grade (directly sown rice [18]): 4 (weed kill ratio 70% or more, less than 90%)
c (corn) effect on crop grade (corn [19]): 3 (weed kill ratio 40% or more, less than 70%)
d (soybean) effect on crop grade (soybean [20]): 1 (weed kill ratio 5% or more, less than 20%)
e (wheat) effect on crop grade (wheat [21]): 0 (weed kill ratio 5% or less (practically no effect))
f (beet) effect on crop grade (beet [22]): 1 (weed kill ratio 5% or more, less than 20%)
D (crabgrass) weedkilling efficacy grade (crabgrass [23]): 5 (weed kill ratio 90% or more, (practically complete withering))
E (green foxtail) weedkilling efficacy grade (green foxtail [24]): 4 (weed kill ratio 70% or more, less than 90%)
G (wild oat) weedkilling efficacy grade (wild oat [25]): 3 (weed kill ratio 40% or more, less than 70%)
H (black-grass) weedkilling efficacy grade (black-grass [26]): 4 (weed kill ratio 70% or more, less than 90%)
I (Italian ryegrass) weedkilling efficacy grade (Italian ryegrass [27]): 5 (weed kill ratio 90% or more, (practically complete withering))
K (Indian mallow) weedkilling efficacy grade (Indian mallow [28]): 1 (weed kill ratio 5% or more, less than 20%)
L (redroot pigweed) weedkilling efficacy grade (redroot pigweed [29]): 2 (weed kill ratio 20% or more, less than 40%)
M (fig-leafed goosefoot) weedkilling efficacy grade (fig-leafed goosefoot [30]): 3 (weed kill ratio 40% or more, less than 70%)
N (chickweed) weedkilling efficacy grade (chickweed [31]): 2 (weed kill ratio 20% or more, less than 40%)
O (catchweed) weedkilling efficacy grade (catchweed [32]): 2 (weed kill ratio 20% or more, less than 40%)
P (birds-eye speedwell) weedkilling efficacy grade (birds-eye speedwell [33]): 3 (weed kill ratio 40% or more, less than 70%)
b (directly sown rice) effect on crop grade (directly sown rice [34]): 4 (weed kill ratio 70% or more, less than 90%)
c (corn) effect on crop grade (corn [35]): 1 (weed kill ratio 5% or more, less than 20%)
d (soybean) effect on crop grade (soybean [36]): 3 (weed kill ratio 40% or more, less than 70%)
e (wheat) effect on crop grade (wheat [37]): 0 (weed kill ratio 5% or less (practically no effect))
f (beet) effect on crop grade (beet [38]): 3 (weed kill ratio 40% or more, less than 70%)
